In patent publication EP3723745B1, “PHENOXY ACIDS FOR THE TREATMENT OF NEUROMUSCULAR DISORDERS” (NMD Pharma A/S, priority 2017, dated 2019):

What was measured:
[1] = target: T1, CIC-1 channels (Rattus norvegicus, UniProt P35524); test: Electrophysiological measurement of compound inhibition of CIC-1 in rat muscle (Gm, three micro-electrodes technique); type: cell-based; settings: reduction of Gm in fibres of whole rat soleus muscles, approx. 30°C; n = number of experiments
T1 construct: from tissue; host or cells: intact soleus muscle of 12-14-week old Wistar rats
T1 sequence (P35524 1-994): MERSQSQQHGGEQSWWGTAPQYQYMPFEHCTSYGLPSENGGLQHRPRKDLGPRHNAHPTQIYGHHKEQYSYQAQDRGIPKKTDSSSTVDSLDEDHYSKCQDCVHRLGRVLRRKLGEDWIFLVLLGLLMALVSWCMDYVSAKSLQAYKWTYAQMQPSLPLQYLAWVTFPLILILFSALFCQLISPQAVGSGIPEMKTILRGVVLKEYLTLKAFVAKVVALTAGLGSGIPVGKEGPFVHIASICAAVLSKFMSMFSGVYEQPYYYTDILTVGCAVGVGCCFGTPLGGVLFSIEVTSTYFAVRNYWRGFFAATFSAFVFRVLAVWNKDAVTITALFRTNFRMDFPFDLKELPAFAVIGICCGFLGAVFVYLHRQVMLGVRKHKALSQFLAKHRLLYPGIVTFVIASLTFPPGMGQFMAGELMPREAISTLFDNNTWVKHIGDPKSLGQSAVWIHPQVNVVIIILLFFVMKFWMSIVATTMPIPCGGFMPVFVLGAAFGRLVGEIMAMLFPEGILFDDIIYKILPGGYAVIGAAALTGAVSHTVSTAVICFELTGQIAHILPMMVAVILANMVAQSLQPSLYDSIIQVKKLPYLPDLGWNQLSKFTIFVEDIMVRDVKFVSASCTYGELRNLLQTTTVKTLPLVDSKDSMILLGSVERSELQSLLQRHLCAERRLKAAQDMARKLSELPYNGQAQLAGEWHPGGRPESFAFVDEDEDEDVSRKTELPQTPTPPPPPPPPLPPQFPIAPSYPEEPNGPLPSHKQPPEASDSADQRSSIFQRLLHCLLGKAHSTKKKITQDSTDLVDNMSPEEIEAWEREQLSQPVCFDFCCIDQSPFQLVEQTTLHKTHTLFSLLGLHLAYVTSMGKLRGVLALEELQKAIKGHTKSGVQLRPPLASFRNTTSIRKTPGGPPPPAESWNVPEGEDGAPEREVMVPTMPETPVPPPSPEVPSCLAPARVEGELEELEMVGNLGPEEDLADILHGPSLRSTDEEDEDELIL
Description: Table 2: Inhibition of CIC-1 ion channel using compounds of the invention

[2] = tested on: soleus muscles; test: Measurement of force in an in vitro model: isolated rat nerve-muscle preparation with tubocurarine; settings: Rattus norvegicus, 40 min; percentage of initial force restored after 40 mins with 50 µM test compound; tubocurarine (115 nM) for 90 mins; read-out: Point increase
Method: Recovery of force is quantified as the percentage of the force prior to tubocurarine that is recovered by the compound.
The current invention relates to compounds that inhibit CIC-1 ion channels and increase muscle excitability and thereby improve muscle function in clinical conditions where muscle activation is failing. Such conditions result in loss of contractile function of skeletal muscle, weakness and excessive fatigue. In this series of experiments the compounds were tested for their ability to restore contractile function of isolated rat muscle when the neuromuscular transmission had been compromised akin to neuromuscular disorders.
Experimentally, soleus muscles from 4-5 wk old rats were isolated with the motor nerve remaining attached. The nerve-muscle preparations were mounted in experimental setups that enabled electrical stimulation of the motor nerve. Stimulation of the motor nerve led to activation of the muscle fibres and ensuing force production that was recorded.
After mounting the nerve-muscle preparation in the experimental setup, the contractile function of the muscle was initially assessed under the control conditions (Figure 2A). […] The experimental condition mimics the failing neuromuscular transmission in a range of neuromuscular disorders. After addition of tubocurarine the contractile force declined over the next 90 mins to 10-50 % of the control force. 50 µM of the test compound was then added and the contractile force recovered despite the continued presence of tubocurarine. To quantify the ability of the compound to restore force the percentage of the initial force that was restored was determined after 40 mins of compound exposure (Figure 2B) and the point increase is reported in Table 3. Table 3: Percentage increase of initial force that was restored using compounds of the invention

[3] = tested on: female Lewis rats; test: Measurement of in situ muscle contractile characteristics (isometric hindlimb force, cisatracurium block); type: in vivo, rat; settings: for average increase in twitch peaks: 12 Hz; for average increase in twitch peaks / average increase in tetanic force: cisatracurium infusion; for average increase in tetanic force: 80 Hz; for restore force to muscles in vivo: muscles partially inhibited by a neuromuscular blocker, summary in words
Method: Isometric hindlimb force was measured in 12-week old female Lewis rats in the presence and absence of compound.
Rats were placed under anesthesia with isoflurane (2-4%), intubated and subsequently connected to a micro ventilator (Microvent 1, Hallowell EMC, US). Two stimulation electrodes were inserted through the skin to stimulate the sciatic nerve. A small incision was made proximal to the ankle, to expose the Achilles tendon, which was tied by cotton string, and connected to a force transducer (Fort250, World Precision Instruments) with adjustable position (Vernier control). The Achilles tendon was then cut distal to the attached cotton string. The rat was placed on a heated pad, and to prevent movement artefacts from contraction of the ankle dorsiflexors, the foot was fixated by tape on a footplate.
Muscle contractile properties were assessed by applying an electrical current (under supramaximal voltage conditions) to the nerve and recording the force generated by the muscle. The muscle was stretched until maximal force was obtained, when assessed by 2 Hz stimulation. Isometric force was measured every 30 seconds at 12 Hz (Twitch), 10 pulses, and at every 5 minutes at 80 Hz (Tetanic) for 1 second (80 pulses). This stimulation pattern was employed throughout the experiment, expect in few cases where 80 Hz stimulation was replaced by 12 Hz (10 pulses). […] When the level of neuromuscular inhibition was stable, the test article was injected i.v. at the chosen concentration. The effect of test article was assessed on its ability to increase force generated from the stimulation pattern applied. The effect was assessed in the ability to increase force per se (tetanic, 80 Hz, stimulation), and the ratio between individual twitch peaks (12 Hz stimulation). The effect was monitored for at least 1 hour after injection of test article. In addition, the time from injection of test article to maximal effect on force (both twitch and tetanic) was noted and the time for the effect to disappear (return to baseline), if possible. When appropriate the infusion of neuromuscular blocking agent was ceased, with the stimulation pattern continued, and the return of force to control levels was monitored. Animals were sacrificed by cervical dislocation while still fully sedated.

[4] = target: T2, human CIC-1 channels (Homo sapiens, UniProt P35523); test: Automated patch-clamp on human CIC-1 expressed in CHO cells; type: cell-based; settings: difference in half activation voltage, compound added intracellularly vs control cell patches; positive shift = CIC-1 inhibition
T2 construct: host or cells: CHO cells constitutively expressing human ClC-1
Method: The investigatory goal of these experiments was to evaluate how compounds affect the open probability and current amplitude of human CIC-1 channels expressed in CHO cells. Experiments were performed using an automated patch clamp system that allowed high throughput testing of whole cell patches together with both intracellular and extracellular addition of compound.
Automated whole cell patch clamp experiments were performed with the Qpatch 16 system (Sophion Bioscience, Ballerup, Denmark) at room temperature. Data acquisition and analysis were performed in the Qassay software (ver. 5.6, Odense).
To evoke CIC-1 currents in whole cell patches, the membrane potential was initially stepped from a holding potential of -30 mV to +60 mV for 100 ms and then to various test voltages (sweeps) ranging from +120 mV to -140 mV in steps of 20 mV for 300 ms. To obtain tail currents, the membrane potential was stepped to -100 mV after each test voltage for 300 ms and then relaxed to -30 mV for 2 sec between sweeps (Figure 3). I/V relationships for whole cell instant and steady state current amplitudes were obtained by plotting average current densities at the beginning and at the end of the 300 ms step against the membrane potential (Figure 4).
In order to determine the relative overall open probability (P0), the instantaneous tail currents were normalized to the maximal tail current obtained following the most positive voltage step and plotted against the test voltage. Plots of normalized tail currents from each whole cell patch were then fitted to a Boltzmann function allowing determination of half activation voltages (V1/2, Figure 5).
For automated patch clamp experiments extracellular solutions contained: 2 mM CaCl2, 1 mM MgCl2, 10 mM HEPES, 4 mM KCI, 145 mM NaCl, 10 mM Glucose, pH adjusted to 7.4 with NaOH (2 M). Osmolality adjusted to -320 using sucrose.
Intracellular solutions contained: 80 mM CsF, 60 mM CsCI, 5/1 mM KOH/EGTA, 10 mM HEPES, 10 mM NaCl, pH adjusted to 7.2 with NaOH (2 M). Osmolality adjusted to -320 mOsm using sucrose.
Cells used in patch clamp experiments were Chinese hamster ovary cells (CHO) constitutively expressing human CIC-1 channels. The amino acid sequence encoded by the cDNA used to create this cell line was identical to the translated sequence for GenBank accession number NM_000083.2. Cells were produced by Charles River (Catalogue CT6175, Cleveland OH, USA) in a cryopreserved format. Experiments were performed on the cells directly after thawing (3 × 10^6 cells used in each experiment).
To evaluate the compound effect on CIC-1, when applied directly to the intracellular side of the cell membrane, the half activation voltage, V1/2, was determined from whole cell patches with compound added to the intracellular solution and then compared to V1/2 determined from control cell patches with only vehicle added to the intracellular solution. Additionally, the effect of extracellular added compound was evaluated by determine V1/2 and steady state current amplitudes before and after exchanging the extracellular solution to contain compound.
The difference in half activation voltage of CIC-1 channels, ΔV1/2, was determined as the difference between the cell patches treated intracellularly with compound and control cells patches and is reported in Table 4 below. A positive shift in ΔV1/2 is reflecting CIC-1 channel inhibition by the tested compound. P-values of <0.05 is considered significant. […]

T2 sequence (P35523 whole entry): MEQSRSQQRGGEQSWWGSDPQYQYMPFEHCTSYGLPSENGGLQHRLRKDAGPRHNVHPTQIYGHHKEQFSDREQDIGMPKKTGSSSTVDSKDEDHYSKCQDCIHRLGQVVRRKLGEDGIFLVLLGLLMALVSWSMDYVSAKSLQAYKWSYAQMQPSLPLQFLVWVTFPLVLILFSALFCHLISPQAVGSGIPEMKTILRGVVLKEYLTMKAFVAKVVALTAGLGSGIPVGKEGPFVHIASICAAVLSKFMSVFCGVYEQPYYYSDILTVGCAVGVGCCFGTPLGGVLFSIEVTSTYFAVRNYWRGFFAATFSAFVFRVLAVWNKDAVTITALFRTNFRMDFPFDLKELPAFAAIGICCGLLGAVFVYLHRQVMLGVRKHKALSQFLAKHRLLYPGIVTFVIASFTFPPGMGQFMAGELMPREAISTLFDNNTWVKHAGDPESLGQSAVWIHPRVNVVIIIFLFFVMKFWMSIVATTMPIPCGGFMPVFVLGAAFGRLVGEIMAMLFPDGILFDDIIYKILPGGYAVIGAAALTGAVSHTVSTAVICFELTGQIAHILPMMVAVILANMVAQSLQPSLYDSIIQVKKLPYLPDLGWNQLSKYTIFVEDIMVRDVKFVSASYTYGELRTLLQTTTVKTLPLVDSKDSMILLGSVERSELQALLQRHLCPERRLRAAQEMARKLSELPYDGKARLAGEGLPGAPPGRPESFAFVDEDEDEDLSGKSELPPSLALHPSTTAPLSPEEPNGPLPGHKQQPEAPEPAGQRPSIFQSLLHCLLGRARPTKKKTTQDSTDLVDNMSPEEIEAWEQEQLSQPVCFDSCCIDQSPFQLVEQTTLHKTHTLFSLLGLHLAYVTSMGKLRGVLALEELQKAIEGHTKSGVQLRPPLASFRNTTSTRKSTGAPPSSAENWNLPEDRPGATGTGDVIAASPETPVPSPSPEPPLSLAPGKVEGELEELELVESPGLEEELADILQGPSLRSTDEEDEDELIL

Compound | EC50 [1] | activation at 50 µM [2] | average increase in twitch peaks ([3]; 20 mg/kg i.v.) | average increase in tetanic force ([3]; 20 mg/kg i.v.) | restore force to muscles in vivo [3] | ΔV1/2 [4] | average increase in twitch peaks ([3]; 21 mg/kg i.v.) | average increase in tetanic force ([3]; 21 mg/kg i.v.)
C[C@H](Oc1ccc(Br)cc1F)C(=O)O [Compound A-31, (2S)-2-(4-bromo-2-fluorophenoxy)propanoi c acid] | 7.2 ± 2.8 µM | 42% | 7.3% | 29.8% | can restore force | – | – | –
O=C(O)[C@@H](Oc1ccc(Br)cc1F)C1CC1 [Compound A-89, (2S)-2-(4-bromo-2-fluorophenoxy)-2-cyclopropylacetic acid] | 8.7 ± 1.4 µM | 33% | – | – | – | 10.3 mV | – | –
C[C@@H](F)[C@H](Oc1ccc(Br)cc1)C(=O)O [Compound A-94, (2R,3R)-2-(4-bromophenoxy)-3-fluorobutanoic acid] | 12 ± 3.2 µM | 31% | – | – | can restore force | – | 11.5% | 34.8%
C[C@@H](F)[C@H](Oc1ccc(Br)cc1F)C(=O)O [Compound A-95, (2R,3R)-2-(4-bromo-2-fluorophenoxy)-3-fluorobutanoic acid] | 12.5 ± 1.4 µM | 39% | – | – | – | 10.3 mV | – | –
